Laboratory results reported in US9951021B2, “Compounds for inhibiting c-Myc/Max/DNA complex formation” (NATIONAL CANCER CENTER, priority 2016, dated 2018).

Target: T1, recombinant c-Myc/Max (Homo sapiens, UniProt P01106+P61244)
T1 construct: made in house
Assay: Electrophoretic mobility shift assay (EMSA): inhibitory activity on DNA binding of recombinant c-Myc/Max
Conditions: read-out: protein assay IC50
Description: 1) Preparation of Recombinant c-Myc and Max Proteins
Recombinant proteins were prepared as described in the following references: K. C. Jung et al., Fatty Acids, Inhibitors for the DNA Binding of c-Myc/Max Dimer, Suppress Proliferation and Induce Apoptosis of Differentiated HL-60 Human Leukemia Cell, Leukemia, 2006, 20(1), 122-7 or Kyung-Chae Jeong et al., Small-Molecule Inhibitors of c-Myc Transcriptional Factor Suppress Proliferation and Induce Apoptosis of Promyelocytic Leukemia Cell via Cell Cycle Arrest, Mol. BioSyst., 2010, 6, 1503-1509.
2) Electrophoretic Mobility Shift Assay (EMSA)
The inhibitory activity of each candidate compound on DNA binding of recombinant c-Myc/Max was measured using an electrophoretic mobility shift assay (EMSA). The ratio of protein-DNA complexes in each sample was evaluated by measuring band intensity. The oligonucleotides (E-box) corresponding to the consensus binding site of Myc/Max were dimerized through an annealing process. The protein mixture was incubated at room temperature for 5 minutes, and a DMSO solution containing each candidate compound was added thereto. The mixture was further incubated for 5 minutes, and the biotinylated DNA was added. To achieve a state of equilibrium, the final mixture was incubated at room temperature for 10 minutes. The protein-DNA complexes were separated from unbound free DNA by pre-electrophoresis using 8% polyacrylamide gel and 1×TBE buffer. After pre-electrophoresis, electrophoresis was performed at 120 V for 1 hour in 1×TBE buffer. Each band was visualized using HRP-conjugated streptavidin and an ECL solution, and band intensity was measured using image analysis software.

T1 sequence (P01106 whole entry): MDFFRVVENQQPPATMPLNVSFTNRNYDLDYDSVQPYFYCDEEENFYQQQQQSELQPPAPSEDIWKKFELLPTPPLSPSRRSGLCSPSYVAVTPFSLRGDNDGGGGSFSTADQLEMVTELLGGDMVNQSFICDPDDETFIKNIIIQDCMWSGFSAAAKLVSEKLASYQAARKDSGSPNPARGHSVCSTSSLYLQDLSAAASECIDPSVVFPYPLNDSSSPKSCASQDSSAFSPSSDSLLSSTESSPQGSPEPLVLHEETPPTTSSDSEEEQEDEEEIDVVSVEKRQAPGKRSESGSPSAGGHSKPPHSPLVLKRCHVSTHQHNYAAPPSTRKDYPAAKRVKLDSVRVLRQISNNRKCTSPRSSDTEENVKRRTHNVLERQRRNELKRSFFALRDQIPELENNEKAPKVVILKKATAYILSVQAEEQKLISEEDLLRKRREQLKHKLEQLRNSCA
T1 sequence (P61244 whole entry): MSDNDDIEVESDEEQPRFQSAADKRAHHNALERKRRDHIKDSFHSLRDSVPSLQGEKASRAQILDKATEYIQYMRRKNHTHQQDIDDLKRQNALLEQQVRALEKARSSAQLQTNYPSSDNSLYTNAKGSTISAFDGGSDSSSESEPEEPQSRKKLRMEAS

Row | SMILES | IC50
1 | CC(=O)c1c([S+](C)[O-])n(S(=O)(=O)c2ccc(C(C)(C)C)cc2)c2c(Br)ccc(Cl)c2c1=O (centres unmarked) [Compound 42, 3-acetyl-8-bromo-1-((4-(tert-butyl)phenyl)sulfonyl)-5-chloro-2-(methylsulfinyl)quinolin-4(1H)-one] | < 1000 nM
2 | CC(=O)c1c(SCc2cc(Cl)ccc2Cl)[nH]c2c(Br)ccc(Cl)c2c1=O [Compound 43, 3-acetyl-8-bromo-5-chloro-2-((2,5-dichlorobenzyl)thio)quinolin-4(1H)-one] | < 1000 nM
3 | CC(=O)c1c([S+]([O-])Cc2cc(Cl)ccc2Cl)[nH]c2c(Br)ccc(Cl)c2c1=O (centres unmarked) [Compound 44, 3-acetyl-8-bromo-5-chloro-2-((2,5-dichlorobenzyl)sulfinyl)quinolin-4(1H)-one] | < 1000 nM
4 | CC(=O)c1c(SCc2cc(F)cc(F)c2)[nH]c2c(Br)ccc(Cl)c2c1=O [Compound 45, 3-acetyl-8-bromo-5-chloro-2-((3,5-difluorobenzyl)thio)quinolin-4(1H)-one] | < 1000 nM
5 | CC(=O)c1c([S+]([O-])Cc2cc(F)cc(F)c2)[nH]c2c(Br)ccc(Cl)c2c1=O (centres unmarked) [Compound 46, 3-acetyl-8-bromo-5-chloro-2-((3,5-difluorobenzyl)sulfinyl)quinolin-4(1H)-one] | < 1000 nM
6 | CC(=O)c1c(SCc2cccc(I)c2)[nH]c2c(Br)ccc(Cl)c2c1=O [Compound 47, 3-acetyl-8-bromo-5-chloro-2-((3-iodobenzyl)thio)quinolin-4(1H)-one] | < 1000 nM
7 | CC(=O)c1c([S+]([O-])Cc2cccc(I)c2)[nH]c2c(Br)ccc(Cl)c2c1=O (centres unmarked) [Compound 48, 3-acetyl-8-bromo-5-chloro-2-((3-iodobenzyl)sulfinyl)quinolin-4(1H)-one] | < 1000 nM
8 | CC(=O)c1c(SCc2cccc(F)c2)[nH]c2c(Br)ccc(Cl)c2c1=O [Compound 49, 3-acetyl-8-bromo-5-chloro-2-((3-fluorobenzyl)thio)quinolin-4(1H)-one] | < 1000 nM
9 | CC(=O)c1c([S+]([O-])Cc2cccc(F)c2)[nH]c2c(Br)ccc(Cl)c2c1=O (centres unmarked) [Compound 50, 3-acetyl-8-bromo-5-chloro-2-((3-fluorobenzyl)sulfinyl)quinolin-4(1H)-one] | < 1000 nM
10 | CC(=O)c1c([S+]([O-])Cc2cc(C)on2)[nH]c2c(Br)ccc(Cl)c2c1=O (centres unmarked) [Compound 51, 3-acetyl-8-bromo-5-chloro-2-(((5-methylisoxazol-3-yl)methyl)sulfinyl)quinolin-4(1H)-one] | < 1000 nM
11 | CC(=O)c1c(SCc2ccccc2)nc2c(Br)ccc(Cl)c2c1O [Compound 52, 1-(2-(benzylthio)-8-bromo-5-chloro-4-hydroxyquinolin-3-yl)ethan-1-one] | < 1000 nM
12 | CC(=O)c1c([S+]([O-])Cc2ccccc2)nc2c(Br)ccc(Cl)c2c1O (centres unmarked) [Compound 53, 1-(2-(benzylsulfinyl)-8-bromo-5-chloro-4-hydroxyquinolin-3-yl)ethan-1-one] | < 1000 nM
13 | COc1cccc(C[S+]([O-])c2[nH]c3c(Br)ccc(Cl)c3c(=O)c2C(C)=O)c1 (centres unmarked) [Compound 55, 3-acetyl-8-bromo-5-chloro-2-((3-methoxybenzyl)sulfinyl)quinolin-4(1H)-one] | < 1000 nM
14 | CC(=O)c1c([S+]([O-])Cc2ccc(SC(F)(F)F)cc2)[nH]c2c(Br)ccc(Cl)c2c1=O (centres unmarked) [Compound 56, 3-acetyl-8-bromo-5-chloro-2-((4-((trifluoromethyl)thio)benzyl)sulfinyl)quinolin-4(1H)-one] | < 1000 nM
15 | CC(=O)c1c([S+]([O-])Cc2ccc([N+](=O)[O-])cc2)[nH]c2c(Cl)ccc(Cl)c2c1=O (centres unmarked) [Compound 57, 3-acetyl-5,8-dichloro-2-((4-nitrobenzyl)sulfinyl)quinolin-4(1H)-one] | < 1000 nM
16 | CC(=O)c1c([S+]([O-])Cc2ccccc2C#N)[nH]c2c(Br)ccc(Cl)c2c1=O (centres unmarked) [Compound 58, 2-(((3-acetyl-8-bromo-5-chloro-4-oxo-1,4-dihydroquinolin-2-yl)sulfinyl)methyl)benzonitrile] | < 1000 nM
17 | COc1cc(C[S+]([O-])c2[nH]c3c(Br)ccc(Cl)c3c(=O)c2C(C)=O)cc(OC)c1 (centres unmarked) [Compound 59, 3-acetyl-8-bromo-5-chloro-2-((3,5-dimethoxybenzyl)sulfinyl)quinolin-4(1H)-one] | < 1000 nM
18 | CC(=O)c1c([S+]([O-])Cc2ccc(C(C)(C)C)cc2)[nH]c2c(Br)ccc(Cl)c2c1=O (centres unmarked) [Compound 60, 3-acetyl-8-bromo-2-((4-(tert-butyl)benzyl)sulfinyl)-5-chloroquinolin-4(1H)-one] | < 1000 nM
19 | COCSc1[nH]c2c(Br)ccc(Cl)c2c(=O)c1C(C)=O [Compound 61, 3-acetyl-8-bromo-5-chloro-2-((methoxymethyl)thio)quinolin-4(1H)-one] | < 1000 nM
20 | CC(=O)c1c(S)[nH]c2c(Br)ccc(Cl)c2c1=O [Compound 62, 3-acetyl-8-bromo-5-chloro-2-mercaptoquinolin-4(1H)-one] | < 1000 nM
21 | CC(=O)c1c([S+]([O-])Cc2ccc(C(=O)c3ccccc3)cc2)[nH]c2c(Br)ccc(Cl)c2c1=O (centres unmarked) [Compound 63, 3-acetyl-2-((4-benzoylbenzyl)sulfinyl)-8-bromo-5-chloroquinolin-4(1H)-one] | < 1000 nM
22 | CC(=O)c1c([S+]([O-])Cc2ccc([S+]([O-])C(F)(F)F)cc2)[nH]c2c(Br)ccc(Cl)c2c1=O (centres unmarked) [Compound 64, 3-acetyl-8-bromo-5-chloro-2-((4-((trifluoromethyl)sulfinyl)benzyl)sulfinyl)quinolin-4(1H)-one] | < 1000 nM
23 | CC(=O)c1c([S+]([O-])CC#N)[nH]c2c(Br)ccc(Cl)c2c1=O (centres unmarked) [Compound 65, 2-((3-acetyl-8-bromo-5-chloro-4-oxo-1,4-dihydroquinolin-2-yl)sulfinyl)acetonitrile] | < 1000 nM
24 | CC(=O)c1c(SCC#N)[nH]c2c(Br)ccc(Cl)c2c1=O [Compound 66, 2-((3-acetyl-8-bromo-5-chloro-4-oxo-1,4-dihydroquinolin-2-yl)thio)acetonitrile] | < 1000 nM
25 | CC(=O)c1c(S/C=C\C(=O)O)[nH]c2c(Br)ccc(Cl)c2c1=O [Compound 67, (Z)-3-((3-acetyl-8-bromo-5-chloro-4-oxo-1,4-dihydroquinolin-2-yl)thio)acrylic acid] | < 1000 nM
26 | CC(=O)c1c([S+]([O-])Cc2ccc(S(F)(F)(F)(F)F)cc2)[nH]c2c(Br)ccc(Cl)c2c1=O (centres unmarked) [Compound 68, 3-acetyl-8-bromo-5-chloro-2-((4-(pentafluoro-16-sulfanyl)benzyl)sulfinyl)quinolin-4(1H)-one] | < 1000 nM
27 | CC(=O)c1c([S+]([O-])Cc2ccc(S(F)(F)(F)(F)F)cc2F)[nH]c2c(Br)ccc(Cl)c2c1=O (centres unmarked) [Compound 69, 3-acetyl-8-bromo-5-chloro-2-((2-fluoro-4-(pentafluoro-16-sulfanyl)benzyl)sulfinyl)quinolin-4(1H)-one] | < 1000 nM
28 | CC(=O)c1c([S+]([O-])Cc2ccc(C(F)(F)F)cc2)[nH]c2c(Br)ccc(Cl)c2c1=O (centres unmarked) [Compound 70, 3-acetyl-8-bromo-5-chloro-2-((4-(trifluoromethyl)benzyl)sulfinyl)quinolin-4(1H)-one] | < 1000 nM
29 | CC(=O)c1c([S+]([O-])Cc2ccc(OC(F)(F)F)cc2)[nH]c2c(Br)ccc(Cl)c2c1=O (centres unmarked) [Compound 71, 3-acetyl-8-bromo-5-chloro-2-((4-(trifluoromethoxy)benzyl)sulfinyl)quinolin-4(1H)-one] | < 1000 nM
